From the supplement of paper PMC10307832

Tests used:
Test in all cases: relative viability (nuclei count vs DMSO), 5 days (fraction); higher = more cells survive
Foretinib = compound: COc1cc2c(Oc3ccc(NC(=O)C4(C(=O)Nc5ccc(F)cc5)CC4)cc3F)ccnc2cc1OCCCN1CCOCC1 [Foretinib] (anchor plate); conditions: 0.25 µM
Outline: (§1)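 Only plates meeting two conditions passed: control CV below 25% and at least one doubling. Lung cancer cell lines, kept overnight at 37 °C in 1536-well plates, were pinned with five library-drug doses (not always all listed) √10 apart on vehicle-anchored plates and grown 5 days without medium change. A one-step fix, permeabilisation and Hoechst stain preceded 4× imaging and MetaXpress nuclear counting. Viability equals treated-well nuclei divided by vehicle-well nuclei, as the median over plates.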

[1] = compound: O=S(=O)(c1ccccc1)N(CC(F)(F)F)c1ccc(C(O)(C(F)(F)F)C(F)(F)F)cc1
Outline: as §1

RO-3306 = compound: C1=CC2=C(C=CC(=C2)C=C3C(=O)NC(=NCC4=CC=CS4)S3)N=C1 [RO-3306]
Outline: as §1

[2] = compound: O=S(=O)(c1ccccc1)N(CC(F)(F)F)c1ccc(C(O)(C(F)(F)F)C(F)(F)F)cc1 + O=C(c1cc(Cc2n[nH]c(=O)c3ccccc23)ccc1F)N1CCN(C(=O)C2CC2)CC1 [Olaparib] (partner 8 µM)
Outline: (§2)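 Relative viability divides the nuclei count in treated wells by that in vehicle wells. Lung cancer cell lines were seeded in 1536-well plates, dosed by pin tool the next day, and fixed and stained after 5 days in one step with final 0.05% Triton X-100, 1% formaldehyde and 1 ug/ml Hoechst. Dosing was a single drug or a fixed anchor-drug dose plus five library-drug doses (not always all listed) in √10 steps, and values are medians of duplicate plates imaged at 4×.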

RO-3306 + Palbociclib = compound: C1=CC2=C(C=CC(=C2)C=C3C(=O)NC(=NCC4=CC=CS4)S3)N=C1 [RO-3306] + CC(=O)c1c(C)c2cnc(Nc3ccc(N4CCNCC4)cn3)nc2n(C2CCCC2)c1=O [Palbociclib] (partner 0.5 µM)
Outline: as §2

[3] = compound: O=S(=O)(c1ccccc1)N(CC(F)(F)F)c1ccc(C(O)(C(F)(F)F)C(F)(F)F)cc1 + C[C@]1(O)C[C@@H](c2nc(-c3ccc4ccc(-c5ccccc5)nc4c3)c3c(N)nccn32)C1 [Linsitinib] (partner 1 µM)
Outline: as §2

Row | Cell Line | relative viability (Foretinib) | relative viability ([1]; 0.8 µM) | relative viability ([1]; 2.53 µM) | relative viability ([1]; 8 µM) | relative viability (RO-3306; 0.01 µM) | relative viability (RO-3306; 0.03162 µM) | relative viability (RO-3306; 0.1 µM) | relative viability (RO-3306; 0.3162 µM) | relative viability (RO-3306; 1 µM) | relative viability ([2]; first compound 0.8 µM) | relative viability ([2]; first compound 2.53 µM) | relative viability ([2]; first compound 8 µM) | relative viability (RO-3306 + Palbociclib; first compound 0.01 µM) | relative viability (RO-3306 + Palbociclib; first compound 0.03162 µM) | relative viability (RO-3306 + Palbociclib; first compound 0.1 µM) | relative viability (RO-3306 + Palbociclib; first compound 0.3162 µM) | relative viability (RO-3306 + Palbociclib; first compound 1 µM) | relative viability ([3]; first compound 0.8 µM) | relative viability ([3]; first compound 2.53 µM) | relative viability ([3]; first compound 8 µM)
1 | HCC-15 | 1.05 | 1.04 | 0.871 | 0.861 | 1.13 | 0.897 | 0.998 | 1.07 | 0.992 | 0.737 | 0.581 | 0.644 | 0.787 | 0.606 | 0.677 | 0.669 | 0.742 | 0.798 | 0.758 | 0.812
2 | HCC-44 | – | 0.98 | 0.988 | 0.97 | 0.985 | 1 | 1.02 | 0.957 | 0.901 | 0.932 | 0.969 | 0.999 | 1.01 | 0.932 | 0.993 | 0.96 | 0.952 | 0.717 | 0.705 | 0.658
3 | HCC-78 | 0.587 | 0.892 | 0.786 | 0.851 | 1.09 | 0.878 | 0.981 | 1.02 | 0.924 | 0.908 | 0.816 | 0.765 | 0.483 | 0.518 | 0.504 | 0.548 | 0.403 | 0.45 | 0.426 | 0.444
4 | HCC-366 | 0.942 | 1.12 | 0.979 | 0.983 | 1.12 | 0.951 | 0.966 | 1.09 | 1.06 | 0.414 | 0.37 | 0.281 | 0.531 | 0.395 | 0.381 | 0.382 | 0.316 | 0.922 | 0.601 | 0.649
5 | HCC-827 | 0.976 | 1.1 | 1.02 | 0.975 | 1.02 | 0.955 | 1.03 | 1.03 | 1.06 | 0.612 | 0.627 | 0.63 | 0.462 | 0.477 | 0.461 | 0.54 | 0.54 | 1.03 | 0.954 | 0.938
6 | IA-LM | 1.13 | 0.924 | 0.829 | 0.756 | 1.05 | 0.683 | 0.89 | 1.05 | 0.869 | 0.94 | 0.651 | 0.681 | – | – | – | – | – | 0.656 | 0.34 | 0.397
7 | NCI-H522 | – | 1.06 | 0.954 | 1.15 | 1.09 | 0.867 | 0.827 | 0.875 | 0.962 | 0.597 | 0.614 | 0.714 | 1.2 | 0.965 | 1.01 | 1.02 | 1.04 | – | – | –
8 | NCI-H596 | 0.881 | 0.952 | 0.942 | 0.908 | 0.947 | 0.807 | 0.871 | 1.03 | 0.94 | 0.634 | 0.681 | 0.651 | – | – | – | – | – | 1.17 | 0.838 | 0.968
9 | NCI-H1299 | 1.06 | 1.01 | 1.02 | 0.952 | 1.06 | 1 | 1.03 | 1.04 | 1.09 | 0.961 | 0.949 | 0.96 | – | – | – | – | – | 1.11 | 0.954 | 0.782
10 | NCI-H1563 | 0.93 | 0.95 | 1.02 | 0.947 | 0.966 | 0.887 | 0.936 | 0.993 | 0.953 | – | – | – | – | – | – | – | – | 1.2 | 1.17 | 1.06
11 | NCI-H1623 | 0.899 | 0.928 | 0.836 | 0.856 | 0.99 | 0.909 | 0.958 | 1.08 | 0.844 | – | – | – | – | – | – | – | – | – | – | –
12 | NCI-H1648 | – | 0.793 | 0.58 | 0.518 | 0.863 | – | 0.877 | 0.858 | 1.01 | 0.835 | 0.542 | 0.602 | 0.277 | – | 0.284 | 0.246 | 0.224 | – | – | –
13 | NCI-H1650 | 1.22 | 0.929 | 0.897 | 0.936 | 0.885 | 0.729 | 0.795 | 0.881 | 0.728 | 0.792 | 0.678 | 0.743 | 0.423 | 0.246 | 0.285 | 0.321 | 0.274 | – | – | –
14 | NCI-H1703 | 0.347 | 0.846 | 0.776 | 0.696 | 1.17 | 0.837 | 0.969 | 0.751 | 0.906 | 0.53 | 0.387 | 0.446 | – | – | – | – | – | 0.675 | 0.667 | 0.805
15 | NCI-H1792 | – | 0.79 | 0.724 | 0.858 | 0.813 | – | 0.824 | 0.908 | 0.782 | 0.402 | 0.274 | 0.189 | 0.688 | – | 0.653 | 0.708 | 0.698 | 0.396 | 0.392 | 0.22
16 | NCI-H2170 | 1.01 | 1.08 | 0.964 | 0.913 | 1.06 | 0.946 | 0.952 | 1.01 | 0.991 | 0.666 | 0.563 | 0.609 | 0.416 | 0.398 | 0.372 | 0.433 | 0.378 | – | – | –
17 | NCI-H2342 | 1.05 | 1.36 | 0.968 | 0.938 | 1.02 | 0.865 | 0.941 | 0.914 | 0.932 | 0.475 | 0.504 | 0.429 | 0.515 | 0.512 | 0.494 | 0.498 | 0.527 | – | – | –
18 | SW 900 | 0.974 | 0.934 | 0.729 | 0.994 | 0.917 | 0.697 | 0.705 | 0.943 | 0.785 | 0.838 | 0.901 | 0.706 | 0.61 | 0.505 | 0.539 | 0.542 | 0.51 | – | – | –
